Values after ≈ are worked out from the molar mass of the structure shown.
Legend:
Assay in all cases: ≥ marks a high value that may be exact or a test limit, other limits are often not marked, values filed in µg/mL are converted to µM
[1] = system: Escherichia coli ATCC 25922
[2] = system: Staphylococcus aureus ATCC 29213
Escherichia coli = system: Escherichia coli
Pseudomonas aeruginosa = system: Pseudomonas aeruginosa
Staphylococcus aureus = system: Staphylococcus aureus
[3] = system: Enterococcus faecalis ATCC 29212

| MIC [1] [µM] | MIC [2] [µM] | MIC (Escherichia coli) [µM] | MIC (Pseudomonas aeruginosa) [µM] | MIC (Staphylococcus aureus) [µM] | MIC [3] [µM] | SMILES |
| --- | --- | --- | --- | --- | --- | --- |
| 5 (≈ 8.59 µg/mL) | 10 (≈ 17.2 µg/mL) | – | – | – | – | CC(=O)N[C@@H](CC(C)C)C(=O)N[C@@H](CCCCN)C(=O)N[C@@H](CCCCN)C(=O)N[C@@H](CC(C)C)C(=O)N[C@@H](CC(C)C)C(=O)N[C@@H](CCCCN)C(=O)N[C@@H](CC(C)C)C(=O)N[C@@H](CC(C)C)C(=O)N[C@@H](CCCCN)C(=O)N[C@@H](CCCCN)C(=O)N[C@@H](CC(C)C)C(=O)N1CCC[C@H]1C(=O)N[C@@H](CCCCN)C(=O)N[C@@H](CC(C)C)C(N)=O [LKKLLKLLKKLPKL] |
| – | – | 26.9 (≈ 67.4 µg/mL) | 76 (≈ 191 µg/mL) | 38 (≈ 95.3 µg/mL) | – | CC[C@H](C)[C@H](NC(=O)CN)C(=O)NCC(=O)N[C@@H](CCCCN)C(=O)N[C@@H](Cc1ccccc1)C(=O)N[C@H](C(=O)N[C@@H](Cc1cnc[nH]1)C(=O)N[C@@H](CO)C(=O)N[C@@H](C)C(=O)N[C@@H](CCCCN)C(=O)N[C@@H](CCCCN)C(=O)N[C@@H](Cc1ccccc1)C(=O)NCC(=O)N[C@@H](CCCCN)C(=O)N[C@@H](CC(C)C)C(=O)N[C@@H](Cc1ccccc1)C(=O)N[C@H](C(=O)NCC(=O)N[C@@H](CCC(=O)O)C(=O)N[C@H](C(=O)N[C@@H](CCSC)C(=O)N[C@@H](CC(N)=O)C(=O)N[C@@H](CO)C(N)=O)[C@@H](C)CC)C(C)C)[C@@H](C)CC [GIGKFIHSAKKFGKLFVGEIMNS] |
| – | – | 75 (≈ 184 µg/mL) | > 75 | > 75 | – | CC[C@H](C)[C@H](NC(=O)CN)C(=O)N[C@@H](C)C(=O)N[C@@H](CCCCN)C(=O)N[C@@H](Cc1ccccc1)C(=O)NCC(=O)N[C@@H](CCCCN)C(=O)N[C@@H](C)C(=O)N[C@@H](C)C(=O)N[C@@H](C)C(=O)N[C@@H](Cc1cnc[nH]1)C(=O)N[C@@H](Cc1ccccc1)C(=O)NCC(=O)N[C@@H](CCCCN)C(=O)N[C@@H](CCCCN)C(=O)N[C@@H](Cc1c[nH]c2ccccc12)C(=O)N[C@H](C(=O)NCC(=O)N[C@@H](CCC(=O)O)C(=O)N[C@@H](CC(C)C)C(=O)N[C@@H](CCSC)C(=O)N[C@@H](CC(N)=O)C(=O)N[C@@H](CO)C(N)=O)C(C)C [GIAKFGKAAAHFGKKWVGELMNS] |
| 34.2 (≈ 50.1 µg/mL) | – | – | – | – | 68.4 (≈ 100 µg/mL) | CSCC[C@H](NC(=O)[C@H](CCCN=C(N)N)NC(=O)[C@H](Cc1c[nH]c2ccccc12)NC(=O)[C@H](CCC(N)=O)NC(=O)[C@H](Cc1c[nH]c2ccccc12)NC(=O)[C@H](CCCN=C(N)N)NC(=O)[C@H](CCCN=C(N)N)NC(=O)[C@H](C)NC(=O)[C@H](CCCCN)NC(=O)[C@@H](N)Cc1ccccc1)C(=O)O [FKARRWQWRM] |
| > 80 | > 80 | – | – | – | – | CC(=O)N[C@@H](CCCCN)C(=O)N[C@@H](CC(C)C)C(=O)N[C@@H](CC(C)C)C(=O)N[C@@H](CCCCN)C(=O)N[C@@H](CC(C)C)C(=O)N[C@@H](CC(C)C)C(=O)N[C@@H](CCCCN)C(=O)N[C@@H](CCCCN)C(=O)N1CCC[C@H]1C(=O)N[C@@H](CC(C)C)C(=O)N[C@@H](CCCCN)C(=O)N[C@@H](CC(C)C)C(=O)N[C@@H](CC(C)C)C(=O)N[C@@H](CCCCN)C(N)=O [KLLKLLKKPLKLLK] |
| 5 (≈ 8.51 µg/mL) | 2.5 (≈ 4.26 µg/mL) | – | – | – | – | CC(=O)N[C@@H](CC(C)C)C(=O)N[C@@H](CCCCN)C(=O)N[C@@H](CCCCN)C(=O)N[C@@H](CC(C)C)C(=O)N[C@@H](CC(C)C)C(=O)N[C@@H](CCCCN)C(=O)N[C@@H](CC(C)C)C(=O)N[C@@H](CC(C)C)C(=O)N1CCC[C@H]1C(=O)N[C@@H](CCCCN)C(=O)N[C@@H](CC(C)C)C(=O)N[C@@H](CC(C)C)C(=O)N[C@@H](CCCCN)C(=O)N[C@@H](CC(C)C)C(N)=O [LKKLLKLLPKLLKL] |
| – | – | – | 20.6 (≈ 50 µg/mL) | – | – | CC[C@H](C)[C@H](NC(=O)[C@H](Cc1ccccc1)NC(=O)[C@H](CO)NC(=O)[C@H](CCCCN)NC(=O)[C@H](Cc1c[nH]c2ccccc12)NC(=O)[C@@H](N)CCCCN)C(=O)N[C@@H](CCCCN)C(=O)N[C@@H](CCCCN)C(=O)N[C@@H](CO)C(=O)N[C@H](C(=O)N[C@@H](CO)C(=O)N[C@@H](CCCCN)C(=O)N[C@@H](Cc1ccccc1)C(=O)N[C@@H](CC(C)C)C(=O)N[C@@H](Cc1cnc[nH]1)C(=O)N[C@@H](CO)C(=O)N[C@@H](C)C(=O)N[C@@H](CCCCN)C(=O)N[C@@H](CCCCN)C(=O)N[C@@H](Cc1ccccc1)C(N)=O)[C@@H](C)O [KWKSFIKKSTSKFLHSAKKF] |

Reference: DBAASP
